Assays:
[1] = tested on: TNF-α release from LPS stimulated PEC cells; assay: TNF-α release from LPS stimulated PEC macrophages (ELISA); assay type: cell-based, murine; conditions: Mus musculus, Macrophage
Protocol: Murine peritoneal exudate cell macrophages (PEC) were isolated by perfusion of mouse peritoneum and plated into 96-well trays at 5×10^5 cells per well. […] At various times thereafter, supernatants were removed and levels of either TNF-α or IL-1α were assayed using commercial 96-well microtiter immunoassay kits (Genzyme; TNF; Endogen, Boston, Mass.; IL-1α) according to manufacturer's specifications. […] 4000 cells were plated into each well of a 96-well microtiter plate and allowed to incubate for 72 hrs at 37° C. […] Either the HUVEC or U937 cells were stimulated with either LPS, IL-1α or TNF-α for 12 hrs. For the adhesion assay, U937 cells were labeled with the fluorescent viability stain, 2',7'-bis-(2-carboxyethyl)-5-(and-6)-carboxyfluorescein acetoxymethyl ester (BCECF). […] The cells were washed once with full media and 50,000 cells/well added to the HUVEC cultures. The samples were incubated at 37° C. for 30 min, inverted and centrifuged for 10 min at 400× g. After addition of […] Hanks Balanced Salt Solution (HBSS), the microtiter plate was then analyzed on a Millipore Cytofluor fluorescent plate reader (excitation 488 nm; emission 525 nm).
Cells were pretreated with […] CT1501R and supernatants assayed by ELISA for released TNF-α as a function of time following LPS stimulation. […]

[2] = tested on: Balb/c mice given a lethal dose of endotoxin; assay: endotoxin induced lethality in mice (survival); assay type: in vivo, mouse; conditions: for cumulative percent survival: 72 hours post LPS
Protocol: Animals were treated with 10 μg/gm of LPS (i.v.) Immediately following the LPS (t=0), 2 hrs after the LPS (t=2) or 4 hrs following LPS (t=4) the mice were treated with their first treatment of CT1501R (100 mg/kg, i.p.). The mice were treated with CT1501R three times per day thereafter, and animal survival was monitored.
This example illustrates the effect of CT1501R on survival in mice given a lethal dose of endotoxin. We determined if CT1501R protects against endotoxin induced lethality in a murine model. Septic shock was modeled by endotoxin injection of 6-8 week old female Balb/c mice similar to previously published reports (Ashkenazi et al. Proc. Natl. Acad. Sci. U.S.A. 88: 10535-10539, 1991.) under protocols approved by the Animal Use Committee of the Biomembrane Institute, Seattle, Wash. Animals were injected intravaneously (i.v.) with an approximate LD100 dose (10 μg) of Salmonella abortus equi-derived endotoxin (Sigma Chemical Co., L-1887) in phosphate buffered saline (PBS). […] Control mice were injected at the same times with a similar volume of vehicle control (PBS). Survival was followed for at least 72 hours.
Ten mice were treated each with PBS alone or CT1501R alone on the same schedule as the experimental mice. […] Endotoxin survival data were summarized from a total of six (6) independent experiments. Summary Table 1 details the results of each of the six experiments. In FIG. 5, each time point represents a minimum of three (3) experiments comprising at least twenty (20) mice per group. A probability analysis of the survival data using a Fisher's Exact One Tailed Test is given as Table 3. Significant protection was conferred if CT1501R was administered immediately after the LPS treatment. The cumulative percent survival at 72 hours post LPS treatment was 60% compared to 7% for the LPS-only treated animals (p=<0.0005; Table 3).

IL-6 = assay: mouse plasma IL-6 ELISA after endotoxin; assay type: in vivo; conditions: for Plasma IL-6: LPS + CT-1501R
Protocol: For ELISA measurements of cytokine levels in plasma, blood was collected by retro-orbital or cardiac puncture of anesthetized mice, immediately centrifuged and the EDTA plasma stored at -70° C. Particulate free plasma was thawed on ice and cytokine levels determined utilizing commercial ELISA assays with normal mouse plasma used to generate standard curves. Murine tumor necrosis factor-α and interleukin-1αkits were purchased from Genzyme (Cambridge, Mass.) and Endogen (Boston, Mass.), respectively. Each data point was an average of two ELISA measurements made from EDTA […] pooled from three mice. The data summarized in Table 3 were compiled from two independent experiments; data from Table 4 and 5 were from single experiments of three mice per data point.
In particular, peak levels observed at 6, 12 and 18 hours post endotoxin were decreased 1.2, 4.3 and 3.2-fold, respectively. Finally, IL-6 measurements were made in a similar manner (Table 6, FIG. 8).

Structure (SMILES): C[C@@H](O)CCCCn1c(=O)c2c(ncn2C)n(C)c1=O [CT1501R, (R)-1-(5-hydroxyhexyl)-3,7-dimethylxanthine]
- IC50 ([1]; LPS stimulated PEC, drug 1 hour before LPS, FIG. 18, read-out: concentration for 50% inhibition of TNF-α release (IC50)): ~30 µM
- inhibition at 500 µM ([1]; at 500 μM, read-out: inhibitory effects, % of the maximal LPS stimulation (1428 pg/ml)): ~40%
- cumulative percent survival ([2]; CT1501R four hours after LPS): 37%
- cumulative percent survival ([2]; CT1501R immediately after LPS): 60%
- cumulative percent survival ([2]; CT1501R two hours after LPS): 55%
- adverse effects ([2]; CT1501R alone, no LPS, ten mice, same schedule): no adverse effects noted
- Survival (Number Surviving/Total) ([2]; Expt. 1, CT-1501R t = 0 Hr post LPS, 24 Hr post LPS): 4/5
- Survival (Number Surviving/Total) ([2]; Expt. 1, CT-1501R t = 0 Hr post LPS, 48 Hr post LPS): 4/5
- Survival (Number Surviving/Total) ([2]; Expt. 1, CT-1501R t = 0 Hr post LPS, 72 Hr post LPS): 4/5
- Survival (Number Surviving/Total) ([2]; Expt. 1, CT-1501R t = 2 Hr post LPS, 24 Hr post LPS): 4/5
- Survival (Number Surviving/Total) ([2]; Expt. 1, CT-1501R t = 2 Hr post LPS, 48 Hr post LPS): 3/5
- Survival (Number Surviving/Total) ([2]; Expt. 1, CT-1501R t = 2 Hr post LPS, 72 Hr post LPS): 3/5
- Survival (Number Surviving/Total) ([2]; Expt. 2, CT-1501R t = 0 Hr post LPS, 24 Hr post LPS): 5/5
- Survival (Number Surviving/Total) ([2]; Expt. 2, CT-1501R t = 0 Hr post LPS, 48 Hr post LPS): 5/5
- Survival (Number Surviving/Total) ([2]; Expt. 2, CT-1501R t = 0 Hr post LPS, 72 Hr post LPS): 5/5
- Survival (Number Surviving/Total) ([2]; Expt. 2, CT-1501R t = 2 Hr post LPS, 24 Hr post LPS): 5/5
- Survival (Number Surviving/Total) ([2]; Expt. 2, CT-1501R t = 2 Hr post LPS, 48 Hr post LPS): 5/5
- Survival (Number Surviving/Total) ([2]; Expt. 2, CT-1501R t = 2 Hr post LPS, 72 Hr post LPS): 5/5
- Survival (Number Surviving/Total) ([2]; Expt. 3, CT-1501R t = 4 Hr post LPS, 24 Hr post LPS): 5/5
- Survival (Number Surviving/Total) ([2]; Expt. 3, CT-1501R t = 4 Hr post LPS, 48 Hr post LPS): 3/5
- Survival (Number Surviving/Total) ([2]; Expt. 3, CT-1501R t = 4 Hr post LPS, 72 Hr post LPS): 3/5
- Survival (Number Surviving/Total) ([2]; Expt. 4, CT-1501R t = 4 Hr post LPS, 24 Hr post LPS): 7/10
- Survival (Number Surviving/Total) ([2]; Expt. 4, CT-1501R t = 4 Hr post LPS, 48 Hr post LPS): 5/10
- Survival (Number Surviving/Total) ([2]; Expt. 4, CT-1501R t = 4 Hr post LPS, 72 Hr post LPS): 5/10
- Survival (Number Surviving/Total) ([2]; Expt. 5, CT-1501R t = 0 Hr post LPS, 24 Hr post LPS): 9/10
- Survival (Number Surviving/Total) ([2]; Expt. 5, CT-1501R t = 0 Hr post LPS, 48 Hr post LPS): 7/10
- Survival (Number Surviving/Total) ([2]; Expt. 5, CT-1501R t = 0 Hr post LPS, 72 Hr post LPS): 3/10
- Survival (Number Surviving/Total) ([2]; Expt. 5, CT-1501R t = 2 Hr post LPS, 24 Hr post LPS): 5/10
- Survival (Number Surviving/Total) ([2]; Expt. 5, CT-1501R t = 2 Hr post LPS, 48 Hr post LPS): 3/10
- Survival (Number Surviving/Total) ([2]; Expt. 5, CT-1501R t = 2 Hr post LPS, 72 Hr post LPS): 3/10
- Survival (Number Surviving/Total) ([2]; Expt. 5, CT-1501R t = 4 Hr post LPS, 24 Hr post LPS): 7/10
- Survival (Number Surviving/Total) ([2]; Expt. 5, CT-1501R t = 4 Hr post LPS, 48 Hr post LPS): 4/10
- Survival (Number Surviving/Total) ([2]; Expt. 5, CT-1501R t = 4 Hr post LPS, 72 Hr post LPS): 2/10
- Survival (Number Surviving/Total) ([2]; Expt. 6, CT-1501R t = 4 Hr post LPS, 24 Hr post LPS): 3/10
- Survival (Number Surviving/Total) ([2]; Expt. 6, CT-1501R t = 4 Hr post LPS, 48 Hr post LPS): 3/10
- Survival (Number Surviving/Total) ([2]; Expt. 6, CT-1501R t = 4 Hr post LPS, 72 Hr post LPS): 3/10
- survival compared with published results of Genentech's bifunctional TNF receptor ([2]; drug simultaneously or two hours after lethal LPS, FIGS. 15 and 16): consistently was better at improving survival than Genentech's TNF receptor
- Cumulative survival (Number Surviving/Total) ([2]; n = 3 expts, CT-1501R t = 0 Hr post LPS, 24 Hr post LPS): 18/20
- Cumulative survival (Number Surviving/Total) ([2]; n = 3 expts, CT-1501R t = 0 Hr post LPS, 48 Hr post LPS): 16/20
- Cumulative survival (Number Surviving/Total) ([2]; n = 3 expts, CT-1501R t = 0 Hr post LPS, 72 Hr post LPS): 12/20
- Cumulative survival (Number Surviving/Total) ([2]; n = 3 expts, CT-1501R t = 2 Hr post LPS, 24 Hr post LPS): 14/20
- Cumulative survival (Number Surviving/Total) ([2]; n = 3 expts, CT-1501R t = 2 Hr post LPS, 48 Hr post LPS): 11/20
- Cumulative survival (Number Surviving/Total) ([2]; n = 3 expts, CT-1501R t = 2 Hr post LPS, 72 Hr post LPS): 11/20
- Cumulative survival (Number Surviving/Total) ([2]; n = 4 expts, CT-1501R t = 4 Hr post LPS, 24 Hr post LPS): 22/35
- Cumulative survival (Number Surviving/Total) ([2]; n = 4 expts, CT-1501R t = 4 Hr post LPS, 48 Hr post LPS): 15/35
- Cumulative survival (Number Surviving/Total) ([2]; n = 4 expts, CT-1501R t = 4 Hr post LPS, 72 Hr post LPS): 13/35
- fold decrease of plasma IL-6 (IL-6; 3 hours post endotoxin): 1.7 fold
- fold decrease of plasma IL-6 (IL-6; 6 hours post endotoxin): 2.0 fold
- fold decrease of plasma IL-6 (IL-6; 12 hours post endotoxin): 4.1 fold
- Plasma IL-6 (IL-6; 0 hours post LPS): 0 ng/mL
- Plasma IL-6 (IL-6; 0.17 hours post LPS): 0.14 ng/mL
- Plasma IL-6 (IL-6; 0.5 hours post LPS): 1 ng/mL
- Plasma IL-6 (IL-6; 1 hour post LPS): 31.8 ng/mL
- Plasma IL-6 (IL-6; 3 hours post LPS): 183 ng/mL
- Plasma IL-6 (IL-6; 6 hours post LPS): 121 ng/mL
- Plasma IL-6 (IL-6; 12 hours post LPS): 29.6 ng/mL
- Plasma IL-6 (IL-6; 18 hours post LPS): 19.8 ng/mL
- Plasma IL-6 (IL-6; 24 hours post LPS): 25.6 ng/mL
- Plasma IL-6 (IL-6; 36 hours post LPS): 1.64 ng/mL
- Plasma IL-6 (IL-6; 48 hours post LPS): 0.4 ng/mL

Reference: patent US5567704A, “R-enatiomerically pure hydroxylated xanthine compounds to treat baldness” (priority 1995, dated 1996)
